From PubChem BioAssay AID248 (DTP/NCI, 2004)
Toxic doses and inconclusive results are not listed.

Test system: L1210 leukemia ip in BDF1 mice, survival T/C
Assay: NCI In Vivo Anticancer Drug Screen. Data for tumor model L1210 Leukemia (intraperitoneal) in B6D2F1 (BDF1) mice
Details: endpoint: mean survival time, higher = longer survival
Method in brief: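 Tumor was transplanted into mice, which were then dosed with test compound or vehicle alone. Survival was recorded for each group, and the treated figure was expressed relative to the control figure.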

[1] = dose: 100.0 mg/kg/injection, schedule: Q04DX002 (ip), vehicle: Klucel (hydroxypropylcellulose) (HPC)
[2] = dose: 200.0 mg/kg/injection, schedule: Q04DX002 (ip), vehicle: Klucel (hydroxypropylcellulose) (HPC)
[3] = dose: 400.0 mg/kg/injection, schedule: Q04DX002 (ip), vehicle: Klucel (hydroxypropylcellulose) (HPC)
[4] = dose: 100.0 mg/kg/injection, schedule: Q04DX003 (ip), vehicle: saline with Tween-80
[5] = dose: 200.0 mg/kg/injection, schedule: Q04DX003 (ip), vehicle: saline with Tween-80
[6] = dose: 400.0 mg/kg/injection, schedule: Q04DX003 (ip), vehicle: saline with Tween-80
[7] = dose: 100.0 mg/kg/injection, schedule: Q01DX009 (ip), vehicle: saline with Tween-80
[8] = dose: 100.0 mg/kg/injection, schedule: Q04DX003 (ip), vehicle: saline
[9] = dose: 200.0 mg/kg/injection, schedule: Q01DX009 (ip), vehicle: saline with Tween-80
[10] = dose: 200.0 mg/kg/injection, schedule: Q04DX003 (ip), vehicle: saline
[11] = dose: 400.0 mg/kg/injection, schedule: Q04DX003 (ip), vehicle: saline
[12] = dose: 25.0 mg/kg/injection, schedule: Q04DX003 (ip), vehicle: saline
[13] = dose: 50.0 mg/kg/injection, schedule: Q01DX009 (ip), vehicle: saline with Tween-80
[14] = dose: 50.0 mg/kg/injection, schedule: Q04DX003 (ip), vehicle: saline
[15] = dose: 100.0 mg/kg/injection, schedule: Q01DX009 (ip), vehicle: Klucel (hydroxypropylcellulose) (HPC)
[16] = dose: 100.0 mg/kg/injection, schedule: Q04DX003 (ip), vehicle: Klucel (hydroxypropylcellulose) (HPC)
[17] = dose: 200.0 mg/kg/injection, schedule: Q01DX009 (ip), vehicle: Klucel (hydroxypropylcellulose) (HPC)
[18] = dose: 200.0 mg/kg/injection, schedule: Q04DX003 (ip), vehicle: Klucel (hydroxypropylcellulose) (HPC)
[19] = dose: 400.0 mg/kg/injection, schedule: Q04DX003 (ip), vehicle: Klucel (hydroxypropylcellulose) (HPC)
[20] = dose: 100.0 mg/kg/injection, schedule: Q01DX001 (ip), vehicle: saline
[21] = dose: 200.0 mg/kg/injection, schedule: Q01DX001 (ip), vehicle: saline
[22] = dose: 400.0 mg/kg/injection, schedule: Q01DX001 (ip), vehicle: saline

COc1ccc(C(C)(C)CC(C)(C)C)cc1
T/C (dose: 75.0 mg/kg/injection, schedule: Q01DX009 (ip), vehicle: Klucel (hydroxypropylcellulose) (HPC)): 111 % of control
T/C [1]: 108 % of control
T/C (dose: 150.0 mg/kg/injection, schedule: Q01DX009 (ip), vehicle: Klucel (hydroxypropylcellulose) (HPC)): 100 % of control
T/C [2]: 118 % of control
T/C (dose: 300.0 mg/kg/injection, schedule: Q01DX009 (ip), vehicle: Klucel (hydroxypropylcellulose) (HPC)): 91 % of control
T/C [3]: 101 % of control

CC(C)CCNC(=O)CS(=O)(=O)c1ccc(N)cc1
T/C [4]: 98 % of control
T/C [5]: 98 % of control
T/C [6]: 96 % of control

c1ccc(-c2c(-c3ccccc3)c(-c3ccccc3)c(-c3ccccc3)c(-c3ccccc3)c2-c2ccccc2)cc1
T/C (dose: 25.0 mg/kg/injection, schedule: Q01DX009 (ip), vehicle: water): 104 % of control
T/C (dose: 50.0 mg/kg/injection, schedule: Q01DX009 (ip), vehicle: water): 102 % of control
T/C (dose: 100.0 mg/kg/injection, schedule: Q01DX009 (ip), vehicle: water): 96 % of control
T/C (dose: 200.0 mg/kg/injection, schedule: Q01DX009 (ip), vehicle: water): 100 % of control
T/C (dose: 400.0 mg/kg/injection, schedule: Q01DX009 (ip), vehicle: water): 97 % of control

CC(C)(C)C1=CC(C(C)(C)C)CCC1=O (stereo unspecified)
T/C (dose: 100.0 mg/kg/injection, schedule: Q04DX003 (ip), vehicle: acetone): 98 % of control
T/C (dose: 200.0 mg/kg/injection, schedule: Q04DX003 (ip), vehicle: acetone): 102 % of control
T/C (dose: 400.0 mg/kg/injection, schedule: Q04DX003 (ip), vehicle: acetone): 92 % of control

CC(C)CN(CCCCO)CC(C)C
T/C [7]: 95 % of control
T/C [8]: 100 % of control
T/C [9]: 103 % of control
T/C [10]: 100 % of control
T/C [11]: 100 % of control

NC(=O)C1(Cl)CC2C=CC1C2 (stereo unspecified)
T/C (dose: 25.0 mg/kg/injection, schedule: Q01DX009 (ip), vehicle: saline with Tween-80): 90 % of control
T/C [12]: 100 % of control
T/C [13]: 95 % of control
T/C [14]: 99 % of control
T/C [7]: 97 % of control
T/C [8]: 110 % of control

CC(C)CCC[C@@H](C)[C@H]1CC[C@H]2[C@@H]3CC[C@H]4C[C@H](NC(=O)N(CCF)N=O)CC[C@]4(C)[C@H]3CC[C@]12C
T/C (dose: 8.0 mg/kg/injection, schedule: Q01DX001 (ip), vehicle: other): 102 % of control
T/C (dose: 16.0 mg/kg/injection, schedule: Q01DX001 (ip), vehicle: other): 103 % of control
T/C (dose: 31.0 mg/kg/injection, schedule: Q01DX001 (ip), vehicle: other): 108 % of control
T/C (dose: 62.0 mg/kg/injection, schedule: Q01DX001 (ip), vehicle: other): 116 % of control
T/C (dose: 250.0 mg/kg/injection, schedule: Q01DX001 (ip), vehicle: other): 116 % of control
T/C (dose: 375.0 mg/kg/injection, schedule: Q01DX001 (ip), vehicle: other): 122 % of control
T/C (dose: 500.0 mg/kg/injection, schedule: Q01DX001 (ip), vehicle: other): 124 % of control
T/C (dose: 750.0 mg/kg/injection, schedule: Q01DX001 (ip), vehicle: other): 170 % of control
T/C (dose: 1000.0 mg/kg/injection, schedule: Q01DX001 (ip), vehicle: other): 153 % of control
T/C (dose: 1500.0 mg/kg/injection, schedule: Q01DX001 (ip), vehicle: other): 188 % of control
T/C (dose: 2000.0 mg/kg/injection, schedule: Q01DX001 (ip), vehicle: other): 202 % of control
T/C (dose: 2500.0 mg/kg/injection, schedule: Q01DX001 (ip), vehicle: other): 252 % of control

Cc1ccc(S(=O)(=O)CO)cc1
T/C [13]: 108 % of control
T/C [7]: 89 % of control
T/C [9]: 97 % of control

O=CC(C(O)C(O)C(O)CO)N1CCN(C(C=O)C(O)C(O)C(O)CO)CC1 (stereo unspecified)
T/C (dose: 50.0 mg/kg/injection, schedule: Q04DX002 (ip), vehicle: saline): 95 % of control
T/C (dose: 100.0 mg/kg/injection, schedule: Q04DX002 (ip), vehicle: saline): 107 % of control
T/C (dose: 200.0 mg/kg/injection, schedule: Q04DX002 (ip), vehicle: saline): 107 % of control

O=C(Cc1ccccc1[N+](=O)[O-])NCCc1ccc2c(c1)OCO2
T/C (dose: 100.0 mg/kg/injection, schedule: Q01DX001 (ip), vehicle: other): 86 % of control
T/C (dose: 200.0 mg/kg/injection, schedule: Q01DX001 (ip), vehicle: other): 89 % of control
T/C (dose: 400.0 mg/kg/injection, schedule: Q01DX001 (ip), vehicle: other): 89 % of control

CCSC1(SCC)C2(CCCCC2)C(=O)C12CCCCC2
T/C [1]: 93 % of control
T/C [2]: 96 % of control
T/C [3]: 96 % of control

CCC1(C)NC(C(=O)O)CS1 (stereo unspecified)
T/C [8]: 105 % of control
T/C [10]: 107 % of control
T/C [11]: 100 % of control

COc1ccc(S(=O)(=O)NC(=O)NCCC=C(C)C)cc1
T/C (dose: 50.0 mg/kg/injection, schedule: Q01DX009 (ip), vehicle: Klucel (hydroxypropylcellulose) (HPC)): 100 % of control
T/C [15]: 95 % of control
T/C [16]: 106 % of control
T/C [17]: 91 % of control
T/C [18]: 97 % of control
T/C [19]: 101 % of control

O=C(OCC1CCN2CCCC12)c1ccccc1 (stereo unspecified)
T/C (dose: 12.5 mg/kg/injection, schedule: Q04DX003 (ip), vehicle: saline): 104 % of control
T/C [12]: 110 % of control
T/C [14]: 102 % of control

O=C1C=C(Nc2ccc([N+](=O)[O-])cc2)C(=O)c2ccccc21
T/C (dose: 75.0 mg/kg/injection, schedule: Q01DX001 (ip), vehicle: carboxymethylcellulose (CMC)): 87 % of control
T/C (dose: 300.0 mg/kg/injection, schedule: Q01DX001 (ip), vehicle: carboxymethylcellulose (CMC)): 89 % of control

O=c1cc(Cl)c(=O)[nH][nH]1
T/C [7]: 100 % of control
T/C [4]: 94 % of control
T/C [9]: 100 % of control
T/C [5]: 94 % of control
T/C (dose: 400.0 mg/kg/injection, schedule: Q01DX009 (ip), vehicle: saline with Tween-80): 114 % of control
T/C [6]: 94 % of control

COc1ccc(OC)c(C(=O)CCCCCCCCC(=O)O)c1
T/C [16]: 109 % of control
T/C [18]: 95 % of control
T/C [19]: 101 % of control

CC=NCc1ccccc1
T/C (dose: 50.0 mg/kg/injection, schedule: Q01DX009 (sc), vehicle: olive oil, sesame oil, peanut oil): 98 % of control
T/C (dose: 100.0 mg/kg/injection, schedule: Q01DX009 (sc), vehicle: olive oil, sesame oil, peanut oil): 114 % of control
T/C (dose: 100.0 mg/kg/injection, schedule: Q04DX003 (sc), vehicle: olive oil, sesame oil, peanut oil): 105 % of control
T/C (dose: 200.0 mg/kg/injection, schedule: Q04DX003 (sc), vehicle: olive oil, sesame oil, peanut oil): 98 % of control

O=C(Nc1ccc([N+](=O)[O-])cc1Cl)Oc1ccc2ccccc2c1
T/C [15]: 92 % of control
T/C [16]: 100 % of control
T/C [17]: 87 % of control
T/C [18]: 97 % of control
T/C [19]: 100 % of control

COc1ccc(/C=C2/CN(c3ccc(C(=O)O)cc3)C(=O)C2=O)cc1
T/C [20]: 95 % of control
T/C [21]: 98 % of control
T/C [22]: 98 % of control

O=c1[nH]nc(S(=O)(=O)N2CCOCC2)c(=O)[nH]1
T/C (dose: 100.0 mg/kg/injection, schedule: Q01DX001 (ip), vehicle: carboxymethylcellulose (CMC)): 98 % of control
T/C (dose: 200.0 mg/kg/injection, schedule: Q01DX001 (ip), vehicle: carboxymethylcellulose (CMC)): 96 % of control
T/C (dose: 400.0 mg/kg/injection, schedule: Q01DX001 (ip), vehicle: carboxymethylcellulose (CMC)): 96 % of control

CCOc1ccc(NC(C)=O)cc1
T/C [16]: 96 % of control
T/C [18]: 104 % of control
T/C [19]: 115 % of control

CCOC(=O)C1(C)CCN(C)C1=O (stereo unspecified)
T/C [20]: 96 % of control
T/C [21]: 96 % of control
T/C [22]: 96 % of control
